From patent US20240343727A1, “PYRIDAZINONE OR PYRIDINONE COMPOUNDS, PREPARATION METHODS AND USES THEREOF” (InventisBio Co., Ltd., priority 2021, published 2024)
Where two headings read alike, the source gives them in different places.

Columns and labels:
[1] = molecular target: T1, PARP7 (Homo sapiens, UniProt Q7Z3E1); assay: PARP7 TR-FRET assay (binding, displacement of biotinylated Probe A); settings: 6 nM PARP7, 2 nM Probe A, 25° C., 30 min
T1 sequence (Q7Z3E1 1-657): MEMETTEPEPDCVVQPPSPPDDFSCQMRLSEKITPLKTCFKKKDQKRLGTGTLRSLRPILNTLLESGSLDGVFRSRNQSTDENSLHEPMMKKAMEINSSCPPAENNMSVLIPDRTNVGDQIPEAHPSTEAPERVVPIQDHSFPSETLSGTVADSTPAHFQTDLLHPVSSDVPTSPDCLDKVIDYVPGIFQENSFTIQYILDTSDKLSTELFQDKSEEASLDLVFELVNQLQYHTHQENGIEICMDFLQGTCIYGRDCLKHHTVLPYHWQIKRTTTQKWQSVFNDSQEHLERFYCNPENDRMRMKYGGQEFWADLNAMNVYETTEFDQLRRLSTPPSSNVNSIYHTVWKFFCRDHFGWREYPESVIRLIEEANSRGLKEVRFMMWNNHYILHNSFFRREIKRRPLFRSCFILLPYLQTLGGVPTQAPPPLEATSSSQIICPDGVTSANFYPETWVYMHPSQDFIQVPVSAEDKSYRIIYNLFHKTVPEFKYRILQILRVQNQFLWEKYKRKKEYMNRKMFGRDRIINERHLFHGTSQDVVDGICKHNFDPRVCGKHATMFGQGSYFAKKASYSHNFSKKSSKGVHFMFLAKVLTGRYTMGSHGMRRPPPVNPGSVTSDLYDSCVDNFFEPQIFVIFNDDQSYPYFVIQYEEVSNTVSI
Method in brief: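 His-tagged PARP7 at 6 nM was preincubated with compound and 2 nM biotinylated Probe A for 30 min at 25° C (HEPES pH 8.0, NaCl, BSA, DTT, Tween20). Europium-streptavidin/ULight-anti-His FRET was read as the 665/615 nm ratio after a further 30 min. IC50 was fitted from % inhibition normalised to vehicle and blank.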

[2] = tested on: NCI-H1373 cells; assay: Inhibition of cancer cell growth in NCI-H1373 cells (Cell-titer Glo, 6 days); format: cell-based; settings: read-out: H1373 Cell Proliferation IC50
Description: Biological Assay Example B: Inhibition of cancer cell growth in NCI-H1373 cells by PARP7 inhibitors
NCI-H1373 cells were cultured in RPMI 1640 medium supplemented with 10% fetal bovine serum, 100 U/mL penicillin and 100 ug/mL streptomycin in a 37° C., 5% CO2 incubator. Fifteen hundred cells were seeded into each well of 96-well plate in RPMI1640 medium containing 10% fetal bovine serum and incubated overnight. Serial diluted compounds for each well were added at a final DMSO concentration of 0.5% and a day zero plate was collected for analysis. Compounds were incubated with the cells for 6 days. Cell growth was assessed using Cell-titer Glo reagent (Promega #G^7572). The luminescence signal was collected on Tecan Spark plate reader. Cell growth is determined by correcting for the cell count on day zero. Inhibition rate is calculated with the formula of % inhibition=100*(DMSO control-compounds)/(DMSO control-Blank). Cell growth inhibition IC50 is calculated with the equation of Y-Bottom+ (Top-Bottom)/(1+10^((LogIC50−X) *Hill Slope)).

| IC50 [1] [nM] | IC50 [2] [nM] | IC50 ([2]; Homo sapiens, NCI-H1373, 144 h) [nM] | SMILES |
| --- | --- | --- | --- |
| < 100 | > 1000 | – | N#Cc1cnc(N2CCN(C(=O)CC3CN(c4cc(C(F)(F)F)c(=O)[nH]n4)c4cc(C(F)F)ccc4O3)CC2)nc1 (single isomer, unassigned) [Compound 140] |
| < 100 | – | < 100 | N#Cc1ccc2c(c1)N(c1cc(C(F)(F)F)c(=O)[nH]n1)CC(CC(=O)N1CCN(c3ncc(Cl)cn3)CC1)O2 (single isomer, unassigned) [Compound 216] |
| < 100 | – | < 100 | COCc1ccc2c(c1)N(c1cc(C(F)(F)F)c(=O)[nH]n1)CC(CC(=O)N1CCN(c3ncc(C(F)(F)F)cn3)CC1)O2 (single isomer, unassigned) [Compound 266] |
| < 100 | – | < 100 | N#Cc1ccc2c(c1)N(c1cc(C(F)(F)F)c(=O)[nH]n1)CC(CC(=O)N1CCN(c3ncc(C4CC4)cn3)CC1)O2 (single isomer, unassigned) [Compound 316] |
| < 100 | – | > 1000 | N#Cc1ccc2c(c1)N(c1cc(C(F)(F)F)c(=O)[nH]n1)CC(CC(=O)N1CCN(c3ccc(C(F)(F)F)cn3)CC1)O2 (single isomer, unassigned) [Compound 346] |
| < 100 | – | < 100 | O=C(CC[C@@H]1CCCN1c1n[nH]c(=O)c2ccccc12)N1CCN(c2ncc(C(F)(F)F)cn2)CC1 [Compound 48] |
| < 100 | – | 100 to 1000 | Cc1c(Oc2cc(C(=O)N3CCN(c4ncc(C(F)(F)F)cn4)CC3)ccc2F)n[nH]c(=O)c1C(F)(F)F [Compound 63] |
| < 100 | – | < 100 | O=C(CC[C@@H]1CCCN1c1cc(C(F)(F)F)c(=O)[nH]n1)N1CCN(c2ncc(C(F)(F)F)cn2)CC1 [Compound 86] |
| < 100 | – | < 100 | C#Cc1ccc2c(c1)N(c1cc(C(F)(F)F)c(=O)[nH]n1)CC(CC(=O)N1CCN(c3ncc(C(F)(F)F)cn3)CC1)O2 (centres unmarked) [Compound 149] |
| < 100 | – | 100 to 1000 | COC1CC(Nc2c(Oc3cccc(C(=O)N4CCN(c5ncc(C(F)(F)F)cn5)CC4)c3)n[nH]c(=O)c2C(F)(F)F)C1 (centres unmarked) [Compound 168] |
| < 100 | – | < 100 | O=C(c1cccc(Oc2n[nH]c(=O)c(C(F)(F)F)c2N2CC3(CCC3)C2)c1)N1CCN(c2cnc(C(F)(F)F)cn2)CC1 [Compound 188] |
| < 100 | – | 100 to 1000 | O=C(c1cncc(Oc2n[nH]c(=O)c(C(F)(F)F)c2N2CC(C3CC3)C2)c1)N1CCN(c2ncc(Cl)cn2)CC1 [Compound 280] |

The next lines start with the molecule.

| SMILES | IC50 [1] [nM] | IC50 [2] [nM] | IC50 ([2]; Homo sapiens, NCI-H1373, 144 h) [nM] |
| --- | --- | --- | --- |
| O=C(CC1CN(c2cc(C(F)(F)F)c(=O)[nH]n2)c2cc(C(F)F)ccc2O1)N1CCN(c2cnc(C(F)(F)F)cn2)CC1 (single isomer, unassigned) [Compound 145] | < 100 | – | < 100 |
| O=C(CC1CN(c2cc(C(F)(F)F)c(=O)[nH]n2)c2cc(F)ccc2O1)N1CCN(c2cnc(C(F)(F)F)cn2)CC1 (single isomer, unassigned) [Compound 291] | < 100 | – | 100 to 1000 |
| O=C(CC1CN(c2cc(C(F)(F)F)c(=O)[nH]n2)c2cc(F)ccc2O1)N1CCN(c2ccc(C3CC3)cn2)CC1 (single isomer, unassigned) [Compound 300] | < 100 | – | 100 to 1000 |
| COCCNC(=O)c1ccc2c(c1)N(c1cc(C(F)(F)F)c(=O)[nH]n1)CC(CC(=O)N1CCN(c3ncc(C(F)(F)F)cn3)CC1)O2 (single isomer, unassigned) [Compound 309] | < 100 | – | 100 to 1000 |
| CNC(=O)c1ccc2c(c1)N(c1cc(C(F)(F)F)c(=O)[nH]n1)CC(CC(=O)N1CCN(c3ncc(C(F)(F)F)cn3)CC1)O2 (single isomer, unassigned) [Compound 324] | < 100 | – | > 1000 |
| O=C(CC1CN(c2cc(C(F)(F)F)c(=O)[nH]n2)c2cc(C(=O)N3CCC3)ccc2O1)N1CCN(c2ncc(C(F)(F)F)cn2)CC1 (single isomer, unassigned) [Compound 336] | < 100 | < 100 | – |
| O=C(CC1CN(c2cc(C(F)(F)F)c(=O)[nH]n2)c2cc(C(=O)N3CCC3)ccc2O1)N1CCN(c2ncc(C(F)(F)F)cn2)CC1 (single isomer, unassigned) [Compound 337] | < 100 | > 1000 | – |
| Cc1c(N2C[C@@H](CC(=O)N3CCN(c4ncc(C(F)(F)F)cn4)CC3)O[C@@H](C)C2)n[nH]c(=O)c1C(F)(F)F (stereo in doubt) [Compound 40] | < 100 | – | 100 to 1000 |
| Cc1c(Oc2cccc(C(=O)N3CCN(c4ncc(C(F)(F)F)cn4)CC3)c2)n[nH]c(=O)c1C(F)(F)F [Compound 15] | < 100 | – | 100 to 1000 |
| O=C(c1cccc(Oc2cc(C(F)(F)F)c(=O)[nH]n2)c1)N1CCN(c2ncc(C(F)(F)F)cn2)CC1 [Compound 16] | < 100 | – | > 1000 |
| Cc1c(Oc2ccnc(C(=O)N3CCN(c4ncc(C(F)(F)F)cn4)CC3)c2)n[nH]c(=O)c1C(F)(F)F [Compound 21] | < 100 | – | 100 to 1000 |
| Cc1c(Oc2ccc(Cl)c(C(=O)N3CCN(c4ncc(C(F)(F)F)cn4)CC3)c2)n[nH]c(=O)c1C(F)(F)F [Compound 26] | < 100 | – | > 1000 |
| Cc1c(Oc2cccc(C(=O)N3CCN(c4ccc(C#N)cn4)CC3)c2)n[nH]c(=O)c1C(F)(F)F [Compound 27] | < 100 | – | 100 to 1000 |
| O=C(C[C@@H]1CN(c2cc(C(F)(F)F)c(=O)[nH]n2)c2ccccc2O1)N1CCN(c2ncc(C(F)(F)F)cn2)CC1 [Compound 34] | < 100 | – | < 100 |
| O=C(C[C@H]1CN(c2cc(C(F)(F)F)c(=O)[nH]n2)c2ccccc2O1)N1CCN(c2ncc(C(F)(F)F)cn2)CC1 [Compound 35] | 100 to 1000 | – | > 1000 |
| COC[C@@H]1C[C@@H](OCC(=O)N2CCN(c3ncc(C(F)(F)F)cn3)CC2)c2n[nH]c(=O)c(C(F)(F)F)c2O1 [Compound 57] | < 100 | – | < 100 |
| O=C(c1cccc(Oc2n[nH]c(=O)c(C(F)(F)F)c2CO)c1)N1CCN(c2ncc(C(F)(F)F)cn2)CC1 [Compound 71] | 100 to 1000 | – | > 1000 |
| Cn1ccc2c(=O)[nH]nc(Oc3cccc(C(=O)N4CCN(c5ncc(C(F)(F)F)cn5)CC4)c3)c21 [Compound 73] | < 100 | – | 100 to 1000 |
| Cc1c(N2CCOc3ccc(C(=O)N4CCN(c5ncc(C(F)(F)F)cn5)CC4)cc32)n[nH]c(=O)c1C(F)(F)F [Compound 78] | 100 to 1000 | – | 100 to 1000 |
| C[C@@H]1CC[C@@H](CCC(=O)N2CCN(c3ncc(C(F)(F)F)cn3)CC2)N1c1cc(C(F)(F)F)c(=O)[nH]n1 [Compound 156] | < 100 | – | < 100 |
| N#Cc1cnc(N2CCN(C(=O)c3cccc(Oc4n[nH]c(=O)c(C(F)(F)F)c4N4CC5(CCC5)C4)c3)CC2)nc1 [Compound 179] | < 100 | – | < 100 |
| O=C(c1cccc(Oc2n[nH]c(=O)c(C(F)(F)F)c2N2CC3(CCC3)C2)c1)N1CCN(c2ncc(Cl)cn2)CC1 [Compound 199] | < 100 | – | < 100 |
| N#Cc1ccc(N2CCN(C(=O)c3cccc(Oc4n[nH]c(=O)c(C(F)(F)F)c4N4CC5(CCCO5)C4)c3)CC2)nc1 [Compound 223] | < 100 | – | 100 to 1000 |
| O=C(c1cc(Oc2n[nH]c(=O)c(C(F)(F)F)c2N2CC3(CCC3)C2)ccn1)N1CCN(c2ncc(C(F)(F)F)cn2)CC1 [Compound 229] | < 100 | – | < 100 |
| N#Cc1cnc(N2CCN(C(=O)c3cncc(Oc4n[nH]c(=O)c(C(F)(F)F)c4N4CC5(C4)CC(F)(F)C5)c3)CC2)nc1 [Compound 236] | < 100 | – | 100 to 1000 |
| C[C@@H]1CN(C(=O)c2cccc(Oc3n[nH]c(=O)c(C(F)(F)F)c3N3CC4(CCO4)C3)c2)CCN1c1ncc(C(F)(F)F)cn1 [Compound 252] | < 100 | – | < 100 |
| O=C(c1cc(Oc2n[nH]c(=O)c(C(F)(F)F)c2N2CC3(CCC3)C2)ccn1)N1CCN(c2cnc(C(F)(F)F)cn2)CC1 [Compound 272] | < 100 | – | < 100 |
| C[C@@H]1CN(C(=O)c2cncc(Oc3n[nH]c(=O)c(C(F)(F)F)c3N3CC4(C3)CC(F)(F)C4)c2)CCN1c1ncc(Cl)cn1 [Compound 321] | < 100 | – | < 100 |
